Starred links: 1 amine or outer side, 2 acyl side, 3 side chain; linkers in the order of their positions; H or OH if unused. Positions of bridges follow the written chain, without caps; N, C: chain ends. Non-standard residues stand in square brackets, D forms with d. Residues, ends and D or L forms follow the SMILES beside them. X1 = CC(=O)NC(C(=O)OC(C(C)C)C(N[*:1])C(=O)[*:2])C(O)C(C)C; PhLac = O=C(O)[CH](O)Cc1ccccc1; NMeT = CN[CH](C(=O)O)[CH](C)O; NMeA = CN[CH](C)C(=O)O; NMeDha = C=C(NC)C(=O)O
Tests used:
[1] = test system: male C57BL/6J mice; test: Tolerance: DOI-induced HTR after 5 days repeated treatment; format: in vivo, mouse; conditions: 5 days SC: 25N-N1-Nap 20, DOI 10, pimavanserin 1 mg/kg/day
Description: (§1) The mice were allowed to recover from the magnet implantation surgeries for at least 1 week prior to behavioral testing. HTR experiments were conducted in a well-lit room, and the mice were allowed to habituate to the room for at least 1 h prior to testing. Head twitches was assessed in a 12-cm diameter glass cylinder surrounded by a magnetometer coil. Coil voltage was low-pass filtered (2 kHz), amplified, and digitized (20-kHz sampling rate) using a Powerlab/8SP with LabChart v 7.3.2 (ADInstruments, Colorado Springs, CO, USA). […] HTR counts were analyzed using one-way ANOVAs. Dunnett's test was used for post hoc comparisons.

[2] = test system: mice; test: PCP-induced locomotor hyperactivity; format: in vivo, mouse; conditions: PCP 5 mg/kg IP, 25N-N1-Nap 3 mg/kg SC, M100907 0.03 mg/kg SC
Description: (A). DOI, a hallucinogen and 5-HT2A agonist, was administered IP 10 min after SC administration of vehicle or test drug. A and then HTR activity was assessed for 30 minutes. *p<0.001, significant difference vs. vehicle (B). Vehicle or the NMDA receptor antagonist PCP (5 mg/kg) was injected IP 10 min after SC administration of vehicle or 25N-NB1-Nap (16), and then the mice were placed in the test chambers 10 min later for a 60-min assessment of locomotor activity. (C). […] Mice were treated with vehicle or M100907 (0.03 mg/kg SC) 10 min prior to vehicle or PCP (5 mg/kg IP): animals were placed in the test chambers 10 min after treatment with PCP. Animals were tested for 60 min. *p<0.01 vs. vehicle: ^#p<0.01 vs. PCP alone.
(§2) Male C57BL/6J mice (6-8 weeks old) from Jackson Labs (Bar Harbor, ME, USA) were used for the behavioral experiments. The mice were housed on a reversed light-dark cycle (lights on at 1900 h, off at 0700 h) in an AAAC-approved vivarium at the University of California San Diego. Mice were housed up to four per cage in a climate-controlled room and with food and water provided ad libitum except during behavioral testing. Testing was performed between 1000 and 1800 h (during the dark phase of the light-dark cycle). The studies were conducted in accordance with National Institutes Health (NIH) guidelines and were approved by the University of California San Diego Institutional Animal Care and Use Committee.
Edelfosine, DOI, R—(−)-DOI, and PCP were injected IP (5 mL/kg): 25N—NB and its derivatives were injected SC (5 mL/kg or 10 mL/kg): YM-254,890 was injected into the lateral ventricle (2 μL) over 1 min.
The mouse behavioral pattern monitor (BPM) was used to assess locomotor activity. Each mouse BPM chamber (San Diego Instruments, San Diego, CA, USA) is a transparent Plexiglas box with an opaque 30×60 cm floor, enclosed in a ventilated isolation box. The position of the mouse in x.y coordinates is recorded by a grid of 12×24 infrared photobeams located 1 cm above the floor. A second row of 16 photobeams (parallel to the long axis of the chamber, located 2.5 cm above the floor) is used to detect rearing behavior. Holepoking behavior is detected by 11 1.4-cm holes that are situated in the walls (3 holes in each long wall, 2 holes in each short wall) and the floor ([…]); each hole is equipped with an infrared photobeam. The status of each photobeam is sampled every 55 ms and recorded for offline analysis. Locomotor activity was quantified as distance traveled, which was analyzed in 20-min blocks using a three-way ANOVA, with pretreatment and treatment as between subject variables and time as a within-subject variable. Tukey's studentized range method was used for post hoc comparisons.

[3] = test system: male C57BL/6J mice; test: Blockade of agonist-induced HTR by pretreatment; format: in vivo, mouse; conditions: C57BL/6J mice; pretreatment with Gq/11 or phospholipase C inhibitor
Description: Vehicle or the NMDA receptor antagonist PCP (5 mg/kg) was injected IP 10 min after SC administration of vehicle or 25N-NB1-Nap (16), and then the mice were placed in the test chambers 10 min later for a 60-min assessment of locomotor activity. (C). […] Mice were treated with vehicle or M100907 (0.03 mg/kg SC) 10 min prior to vehicle or PCP (5 mg/kg IP): animals were placed in the test chambers 10 min after treatment with PCP.
as §2, §1

[4] = target: T1, 5-HT2C (Homo sapiens, UniProt P28335); test: Ca2+ flux assay, 5-HT2C; format: cell-based; set-up: expressed in transfected cells
T1 sequence (P28335 33-458): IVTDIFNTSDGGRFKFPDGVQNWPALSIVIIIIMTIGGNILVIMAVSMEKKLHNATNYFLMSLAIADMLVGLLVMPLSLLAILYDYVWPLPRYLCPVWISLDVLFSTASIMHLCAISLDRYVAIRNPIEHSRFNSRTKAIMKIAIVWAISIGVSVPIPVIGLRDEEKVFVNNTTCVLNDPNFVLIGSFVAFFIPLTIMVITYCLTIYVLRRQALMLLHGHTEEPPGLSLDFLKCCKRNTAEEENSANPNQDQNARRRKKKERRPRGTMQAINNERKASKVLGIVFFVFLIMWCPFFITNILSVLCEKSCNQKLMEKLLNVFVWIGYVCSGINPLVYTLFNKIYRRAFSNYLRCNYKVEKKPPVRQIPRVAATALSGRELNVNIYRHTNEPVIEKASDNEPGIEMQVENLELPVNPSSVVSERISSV
Description: (§3) Cell lines were maintained in DMEM containing 10% FBS, 10 μg/mL Blasticidin (Invivogen), and 100 μg/mL Hygromycin B (GoldBio). At least 20-24 hours before the assay, receptor expression was induced with tetracycline ([…]) and cells were seeded into 384-well poly-L-lysine-coated black plates at a density of 7,500 cells/well in DMEM containing 1% dialyzed FBS. On the day of the assay, the cells were incubated for 1 h at 37° C. with Fluo-4 Direct dye (Invitrogen, 20 μl/well) reconstituted in drug buffer (20 mM HEPES-buffered HBSS, pH 7.4) containing 2.5 mM probenecid. Drug dilutions were prepared at 5X final concentration in McCorvy buffer (20 mM HEPES-buffered HBSS, 0).1% BSA, 0.01% ascorbic acid pH 7.4). After dye load, cells were allowed to equilibrate to room temperature for 15 minutes, and then placed in a FLIPR^TETRA fluorescence imaging plate reader (Molecular Devices). Fluorescence for the FLIPR^TETRA were programmed to read baseline fluorescence for 10 s (1 read/s), and afterward 5 μl of drug per well was added and read for a total of 5-10 min (1 read/s). Fluorescence in each well was normalized to the average of the first 10 reads for baseline fluorescence, and then either maximum-fold peak increase over basal or area under the curve (AUC) was calculated. […] Data was plotted and non-linear regression was performed using “log(agonist) vs. response” in Graphpad Prism 8 to yield Emax and EC50 parameter estimates.

[5] = target: T2, 5-HT2B (Homo sapiens, UniProt P41595); test: Competitive radioligand binding (NIMH PDSP); set-up: expressed in transfected cells
T2 sequence (P41595 whole entry): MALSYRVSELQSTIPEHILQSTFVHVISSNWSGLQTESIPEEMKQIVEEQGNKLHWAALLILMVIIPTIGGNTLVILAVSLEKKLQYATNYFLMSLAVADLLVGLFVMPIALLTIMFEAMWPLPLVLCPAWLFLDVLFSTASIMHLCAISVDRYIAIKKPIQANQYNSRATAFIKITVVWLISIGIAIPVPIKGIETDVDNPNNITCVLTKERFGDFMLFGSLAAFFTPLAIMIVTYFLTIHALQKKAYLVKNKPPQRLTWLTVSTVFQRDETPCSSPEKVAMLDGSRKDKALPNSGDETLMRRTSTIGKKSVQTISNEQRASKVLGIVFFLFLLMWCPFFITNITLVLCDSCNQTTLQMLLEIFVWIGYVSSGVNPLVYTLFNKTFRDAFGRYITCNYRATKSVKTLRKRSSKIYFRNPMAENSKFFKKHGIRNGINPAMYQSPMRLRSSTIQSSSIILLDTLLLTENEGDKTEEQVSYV
Description: (§4) Method 1: Competitive binding experiments were performed by the National Institute of Mental Health Psychoactive Drug Screening Program (NIMH PDSP) using described methods or 5-HT2A experiments performed using [3H]-ketanserin displacement in human 5-HT2A expressing membranes. Target compounds were dissolved in DMSO and an initial screen performed to assess displacement of the radioligand from target receptors at a concentration of 10,000 nM. […] For the Ki experiments, compounds were always tested in triplicate on separate plates. Each plate also contained a known ligand for the receptor as a positive control.

[6] = target: T1, 5-HT2C; test: Competitive radioligand binding (NIMH PDSP); set-up: expressed in transfected cells
Description: as §4

[7] = test system: 5-HT2A; test: Ca2+ flux assay, 5-HT2A; format: cell-based, human; conditions: Gq/11 Ca2+ mobilization; higher number = skewed towards 5-HT2A
Description: as §3

[8] = target: T2, 5-HT2B; test: Ca2+ flux assay, 5-HT2B; format: cell-based; set-up: expressed in transfected cells; conditions: Ca2+ flux
Description: as §3

[9] = target: T3, 5-HT2A (Homo sapiens, UniProt P28223); test: Ca2+ flux assay, 5-HT2A; format: cell-based; set-up: expressed in transfected cells
T3 sequence (P28223 whole entry): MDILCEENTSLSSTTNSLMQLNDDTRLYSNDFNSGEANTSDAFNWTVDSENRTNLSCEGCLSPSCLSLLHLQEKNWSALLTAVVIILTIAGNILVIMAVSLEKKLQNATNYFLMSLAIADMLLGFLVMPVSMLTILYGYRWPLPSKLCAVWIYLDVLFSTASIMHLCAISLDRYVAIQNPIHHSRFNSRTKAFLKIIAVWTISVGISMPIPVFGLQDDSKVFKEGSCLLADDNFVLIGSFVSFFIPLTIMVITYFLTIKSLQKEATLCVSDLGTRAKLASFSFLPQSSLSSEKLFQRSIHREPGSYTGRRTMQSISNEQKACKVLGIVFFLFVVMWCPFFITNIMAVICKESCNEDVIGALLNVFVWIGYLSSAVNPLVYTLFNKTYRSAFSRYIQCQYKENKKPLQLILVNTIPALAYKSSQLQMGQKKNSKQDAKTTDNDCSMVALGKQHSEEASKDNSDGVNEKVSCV
Description: as §3

[10] = target: 5-HT1D (Homo sapiens, UniProt P28221); test: Competitive radioligand binding (NIMH PDSP)
Sequence of 5-HT1D (P28221 whole entry, species assumed): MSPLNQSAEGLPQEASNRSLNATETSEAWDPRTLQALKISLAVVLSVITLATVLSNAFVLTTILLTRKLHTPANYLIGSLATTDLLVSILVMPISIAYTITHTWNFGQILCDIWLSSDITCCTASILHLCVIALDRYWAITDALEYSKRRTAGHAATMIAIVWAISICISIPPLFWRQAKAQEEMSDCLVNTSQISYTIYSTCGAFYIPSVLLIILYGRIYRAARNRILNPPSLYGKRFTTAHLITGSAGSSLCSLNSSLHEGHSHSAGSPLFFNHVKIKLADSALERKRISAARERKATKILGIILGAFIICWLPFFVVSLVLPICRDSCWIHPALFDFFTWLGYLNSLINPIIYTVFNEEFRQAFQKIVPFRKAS
Description: as §4

[11] = target: 5-HT6 (Homo sapiens, UniProt P50406); test: Competitive radioligand binding (NIMH PDSP)
Sequence of 5-HT6 (P50406 whole entry, species assumed): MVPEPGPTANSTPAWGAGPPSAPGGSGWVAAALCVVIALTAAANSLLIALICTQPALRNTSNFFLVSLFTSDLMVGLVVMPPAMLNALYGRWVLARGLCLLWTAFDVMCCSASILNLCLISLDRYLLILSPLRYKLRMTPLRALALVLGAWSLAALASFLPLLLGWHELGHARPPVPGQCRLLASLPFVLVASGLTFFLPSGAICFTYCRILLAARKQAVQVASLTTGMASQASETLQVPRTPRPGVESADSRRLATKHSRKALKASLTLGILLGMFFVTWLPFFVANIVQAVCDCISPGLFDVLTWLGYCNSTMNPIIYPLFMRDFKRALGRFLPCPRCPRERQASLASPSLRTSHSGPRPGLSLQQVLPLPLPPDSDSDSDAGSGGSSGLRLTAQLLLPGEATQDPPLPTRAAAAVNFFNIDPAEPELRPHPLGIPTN
Description: as §4

[12] = target: 5-HT5a (Homo sapiens, UniProt P47898); test: Competitive radioligand binding (NIMH PDSP)
Sequence of 5-HT5a (P47898 whole entry, species assumed): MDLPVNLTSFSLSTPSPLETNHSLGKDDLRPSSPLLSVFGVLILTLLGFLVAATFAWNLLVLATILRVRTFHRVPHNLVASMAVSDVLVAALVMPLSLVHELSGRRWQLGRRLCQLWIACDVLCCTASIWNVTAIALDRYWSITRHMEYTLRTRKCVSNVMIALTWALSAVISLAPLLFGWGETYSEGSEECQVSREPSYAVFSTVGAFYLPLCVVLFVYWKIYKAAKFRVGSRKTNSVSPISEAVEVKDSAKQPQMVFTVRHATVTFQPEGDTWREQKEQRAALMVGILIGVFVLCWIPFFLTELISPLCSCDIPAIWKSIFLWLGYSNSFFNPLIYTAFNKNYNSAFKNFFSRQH
Description: as §4

[13] = target: 5-HT7 (Homo sapiens, UniProt P34969); test: Competitive radioligand binding (NIMH PDSP)
Sequence of 5-HT7 (P34969 whole entry, species assumed): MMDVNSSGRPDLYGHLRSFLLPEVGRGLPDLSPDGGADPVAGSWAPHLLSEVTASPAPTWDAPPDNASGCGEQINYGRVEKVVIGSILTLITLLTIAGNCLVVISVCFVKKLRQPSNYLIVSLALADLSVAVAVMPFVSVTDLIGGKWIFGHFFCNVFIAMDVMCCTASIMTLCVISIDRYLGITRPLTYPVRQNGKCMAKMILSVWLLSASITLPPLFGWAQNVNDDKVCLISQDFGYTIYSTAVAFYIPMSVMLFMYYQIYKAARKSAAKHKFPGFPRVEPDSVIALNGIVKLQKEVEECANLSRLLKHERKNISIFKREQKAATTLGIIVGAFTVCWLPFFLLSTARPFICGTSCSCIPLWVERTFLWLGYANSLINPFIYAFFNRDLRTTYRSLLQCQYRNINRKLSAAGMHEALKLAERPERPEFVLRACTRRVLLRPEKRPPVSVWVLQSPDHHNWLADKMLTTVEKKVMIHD
Description: as §4

[14] = target: T3, 5-HT2A; test: Competitive radioligand binding (NIMH PDSP)
Description: as §4

[15] = target: 5-HT1B (Homo sapiens, UniProt P28222); test: Competitive radioligand binding (NIMH PDSP)
Sequence of 5-HT1B (P28222 whole entry, species assumed): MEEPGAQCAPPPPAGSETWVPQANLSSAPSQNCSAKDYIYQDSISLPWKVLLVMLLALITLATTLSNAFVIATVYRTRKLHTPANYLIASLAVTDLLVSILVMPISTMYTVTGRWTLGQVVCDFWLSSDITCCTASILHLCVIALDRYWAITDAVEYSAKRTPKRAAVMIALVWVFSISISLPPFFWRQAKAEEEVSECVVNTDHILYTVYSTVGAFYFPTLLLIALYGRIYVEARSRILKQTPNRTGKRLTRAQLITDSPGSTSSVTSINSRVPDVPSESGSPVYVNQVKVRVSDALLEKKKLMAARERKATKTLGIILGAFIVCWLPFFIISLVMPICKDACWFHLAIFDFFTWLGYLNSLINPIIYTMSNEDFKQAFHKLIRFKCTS
Description: as §4

[16] = target: 5-HT1e (Homo sapiens, UniProt P28566); test: Competitive radioligand binding (NIMH PDSP)
Sequence of 5-HT1e (P28566 whole entry, species assumed): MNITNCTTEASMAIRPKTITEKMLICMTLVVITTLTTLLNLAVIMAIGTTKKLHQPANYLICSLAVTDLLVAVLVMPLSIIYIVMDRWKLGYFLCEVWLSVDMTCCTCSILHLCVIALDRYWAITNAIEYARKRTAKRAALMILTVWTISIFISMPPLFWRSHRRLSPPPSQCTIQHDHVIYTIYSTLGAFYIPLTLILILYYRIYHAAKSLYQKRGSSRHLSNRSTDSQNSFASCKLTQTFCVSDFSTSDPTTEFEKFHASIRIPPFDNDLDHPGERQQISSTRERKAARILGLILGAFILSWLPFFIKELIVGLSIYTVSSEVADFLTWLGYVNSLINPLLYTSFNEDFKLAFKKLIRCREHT
Description: as §4

[17] = target: T4, 5-HT1A (Homo sapiens, UniProt P08908); test: Competitive radioligand binding (NIMH PDSP)
T4 sequence (P08908 1-422): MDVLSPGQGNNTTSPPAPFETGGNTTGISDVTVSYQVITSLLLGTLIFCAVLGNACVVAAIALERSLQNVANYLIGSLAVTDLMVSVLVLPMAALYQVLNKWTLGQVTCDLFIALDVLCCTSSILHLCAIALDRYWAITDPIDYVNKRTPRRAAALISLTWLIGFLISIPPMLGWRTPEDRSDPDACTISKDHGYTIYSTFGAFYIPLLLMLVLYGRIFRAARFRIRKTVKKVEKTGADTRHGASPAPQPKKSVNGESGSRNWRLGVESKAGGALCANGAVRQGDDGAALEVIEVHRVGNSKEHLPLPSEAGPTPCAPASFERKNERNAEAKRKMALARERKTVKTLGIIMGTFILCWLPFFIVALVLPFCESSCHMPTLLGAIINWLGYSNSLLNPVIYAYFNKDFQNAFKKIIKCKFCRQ
Description: as §4

[18] = target: T5, 5-HT3 (Homo sapiens, UniProt P46098); test: Competitive radioligand binding (NIMH PDSP)
T5 sequence (P46098 24-478): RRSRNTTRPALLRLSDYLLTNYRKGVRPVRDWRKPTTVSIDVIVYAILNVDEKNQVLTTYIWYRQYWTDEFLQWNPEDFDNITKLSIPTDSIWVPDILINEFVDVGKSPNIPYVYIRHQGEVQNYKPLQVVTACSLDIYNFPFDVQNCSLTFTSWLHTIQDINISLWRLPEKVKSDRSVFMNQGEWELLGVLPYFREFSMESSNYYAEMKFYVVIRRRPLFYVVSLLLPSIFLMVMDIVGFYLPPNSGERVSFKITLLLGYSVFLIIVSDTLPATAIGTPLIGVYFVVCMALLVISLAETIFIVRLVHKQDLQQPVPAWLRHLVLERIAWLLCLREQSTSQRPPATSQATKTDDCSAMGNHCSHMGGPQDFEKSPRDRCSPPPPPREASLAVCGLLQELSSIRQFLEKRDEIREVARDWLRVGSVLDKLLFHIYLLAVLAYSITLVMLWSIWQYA
Description: as §4

[19] = target: T3, 5-HT2A; conditions: cited from earlier work
[20] = target: T3, 5-HT2A; test: cell-based; set-up: expressed in transfected cells; host or cells: HEK293T, transient; conditions: BRET, mean ± SEM

In the case of CC(C)COc1ccc(CNC(=O)N(Cc2ccc(F)cc2)C2CCN(C)CC2)cc1 [Pimavanserin], the “Ability of DOI (1 mg/kg IP) to induce the HTR after repeated daily treatment” value [1] is reported as “not altered”.

In the case of COc1cccc([C@H](O)C2CCN(CCc3ccc(F)cc3)CC2)c1OC [Compound M100907, reference compound], the “Effect on PCP-induced locomotor hyperactivity” value [2] is reported as “blocks PCP induced hyperactivity” and the “Effect on PCP-induced locomotor hyperactivity” value ([2]; listed as M100,907) is reported as “blocked”.

For C=C1C(=O)NC(C)C(=O)N(C)C(C)C(=O)NC(C(OC(=O)C(NC(C)=O)C(O)C(C)C)C(C)C)C(=O)N(C)C(C(C)OC)C(=O)OC(C)C(NC(C)=O)C(=O)OC(Cc2ccccc2)C(=O)N1C (stereo not drawn) [YM-254,890, reference compound] (Ac-T[PhLac][NMeDha]A[NMeA][X1][NMeT](Me); ester 1-C; configuration not given here), the “Blockade of the HTR induced by (+/−)-DOI and 25N-NBOMe” value [3] was “blocked”.

With COc1ccc(OC)c(CNCCc2cc(OC)c([N+](=O)[O-])cc2OC)c1 [25N-NB-2,5-DiMeO (20)] the “5-HT2C EC50, nM” value [4] was “No activity”, the Emax ([4]; read-out: 5-HT2C Emax % 5-HT) was < 10% and the Ki [5] was 135 nM. For the same compound, the Ki [6] was 145 nM, the “5-HT2A/5-HT2c Selectivity Factor ΔLog(Emax/EC50)” value [7] was 5-HT2A Selective and the “5-HT2B EC50, nM” value [8] was “No activity”. The Emax ([8]; read-out: 5-HT2B Emax % 5-HT) was < 10%, the EC50 ([9]; 5-HT2A EC50, nM, Ca2+ flux) was 133 nM and the Emax ([9]; read-out: 5-HT2A Emax % 5-HT, Ca2+ flux) was 72 ± 1%. The Ki [10] was > 10000 nM, the Ki [11] was > 10000 nM and the Ki [12] was > 10000 nM. The Ki [13] was > 10000 nM, the Ki [14] was 229 nM and the Ki [15] was > 10000 nM. For the same compound, the Ki [16] was > 10000 nM, the Ki [17] was 513 nM and the Ki [18] was > 10000 nM.

In the case of CCN(CC)C(=O)[C@@H]1C=C2c3cccc4[nH]cc(c34)C[C@H]2N(C)C1 [LSD, reference compound], the “Emax in a 5-HT2A-Gq calcium flux assay” value [19] is given as 84.6% and the “5-HT2A β-arrestin Emax (% 5-HT)” value [20] is given as 85 ± 3 % 5-HT.

Source: patent publication US20240254087A1, “SELECTIVE, PARTIAL, AND ARRESTIN-BIASED 5-HT2A AGONISTS WITH UTILITY IN VARIOUS DISORDERS” (Saint Joseph's University, priority 2021, published 2024)
